The source made the active and inactive calls.
Key:
[1] = target: T1, Protein skinhead-1 (Caenorhabditis elegans, UniProt P34707); type: functional
T1 sequence (P34707 whole entry): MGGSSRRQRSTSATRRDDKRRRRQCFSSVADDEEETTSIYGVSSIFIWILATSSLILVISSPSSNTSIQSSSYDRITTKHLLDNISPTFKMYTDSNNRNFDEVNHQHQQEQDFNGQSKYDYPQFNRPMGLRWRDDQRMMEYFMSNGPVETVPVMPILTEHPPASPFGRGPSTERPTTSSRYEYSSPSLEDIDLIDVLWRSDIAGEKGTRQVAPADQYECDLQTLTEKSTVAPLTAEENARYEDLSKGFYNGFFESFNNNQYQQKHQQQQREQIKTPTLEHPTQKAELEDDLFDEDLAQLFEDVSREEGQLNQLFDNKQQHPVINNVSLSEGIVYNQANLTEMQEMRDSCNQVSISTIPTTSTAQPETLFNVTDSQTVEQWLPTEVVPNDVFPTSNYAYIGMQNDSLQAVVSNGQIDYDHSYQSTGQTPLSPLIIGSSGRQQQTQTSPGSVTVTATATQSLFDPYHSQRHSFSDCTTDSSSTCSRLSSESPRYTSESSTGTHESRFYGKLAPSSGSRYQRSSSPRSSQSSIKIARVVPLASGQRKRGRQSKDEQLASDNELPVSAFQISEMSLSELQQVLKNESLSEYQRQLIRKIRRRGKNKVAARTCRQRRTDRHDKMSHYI

[2] = HIV-1 AD8 envelope cell-cell fusion blockers – cherry-pick, dose response (AID 652062); type: functional, cell-based;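 also: luciferase signal from cell-cell fusion driven by HIV-1 clade B AD8 Env; potency is for inhibitors of fusion seen as a drop in luminescence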
[3] = viability loss in CEM21 cells – cell-based, CellTiter-Glo luminescence, cherry-picked, cytotoxicity control for viral fusion inhibitor project, dose response (AID 652042); type: functional;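 also: potency for signal decrease meaning cytotoxicity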
[4] = P. falciparum Dd2 growth inhibitors, dose response, SYBR Green, cherry-picked samples (AID 1159567); type: functional, cell-based
[5] = blockers of HIV-1 envelope-mediated cell-cell fusion – cherry-pick, dose response (AID 652057); type: functional, cell-based
[6] = target: 5-hydroxytryptamine receptor 2A (Mus musculus, UniProt P35363); type: functional, cell-based;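 also: CHO-K1 cells with tagged receptor and beta-arrestin; agonist potency measured as compound-induced activation of the receptor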
Chain of 5-hydroxytryptamine receptor 2A (P35363 whole entry): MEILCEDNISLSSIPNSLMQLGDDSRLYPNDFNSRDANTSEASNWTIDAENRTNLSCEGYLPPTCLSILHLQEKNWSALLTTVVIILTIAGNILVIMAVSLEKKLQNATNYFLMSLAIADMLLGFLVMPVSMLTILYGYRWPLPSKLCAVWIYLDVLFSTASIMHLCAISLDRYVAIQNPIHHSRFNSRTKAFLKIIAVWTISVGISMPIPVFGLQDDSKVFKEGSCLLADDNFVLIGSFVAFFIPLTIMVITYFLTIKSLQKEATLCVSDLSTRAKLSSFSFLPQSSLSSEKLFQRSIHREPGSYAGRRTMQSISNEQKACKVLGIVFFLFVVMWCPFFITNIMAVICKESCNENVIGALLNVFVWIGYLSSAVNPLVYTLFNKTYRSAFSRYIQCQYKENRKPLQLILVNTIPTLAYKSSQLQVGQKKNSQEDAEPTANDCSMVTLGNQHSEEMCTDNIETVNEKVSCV

[7] = target: Mu-type opioid receptor (Homo sapiens, UniProt P35372); type: functional, cell-based;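 also: U2OS cells with beta-arrestin recruitment to OPRM1 by beta-gal complementation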
Chain of Mu-type opioid receptor (P35372 whole entry): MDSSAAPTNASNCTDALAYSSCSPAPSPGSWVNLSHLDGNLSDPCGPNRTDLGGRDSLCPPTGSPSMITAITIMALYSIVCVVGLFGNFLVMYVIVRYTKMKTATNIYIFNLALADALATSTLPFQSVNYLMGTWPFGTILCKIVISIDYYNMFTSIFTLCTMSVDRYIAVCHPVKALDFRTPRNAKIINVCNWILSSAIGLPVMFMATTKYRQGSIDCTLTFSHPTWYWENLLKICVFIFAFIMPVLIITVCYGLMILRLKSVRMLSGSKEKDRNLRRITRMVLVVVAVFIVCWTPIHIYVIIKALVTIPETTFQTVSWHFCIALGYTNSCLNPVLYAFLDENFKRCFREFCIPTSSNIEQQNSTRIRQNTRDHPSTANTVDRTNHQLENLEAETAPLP

[8] = target: NAD-dependent protein deacylase sirtuin-5, mitochondrial (Homo sapiens, UniProt Q9NXA8); experiment: sirtuin-5 deacylation blockers, concentration series – biochemical, fluorescence imaging, cherry-pick, set 5, dose response (AID 720591);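 also: desuccinylation of succinyl peptide AMC substrate read as fluorescence after trypsin release; potency of inhibitors that lower fluorescence and may act on trypsin instead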
Chain of NAD-dependent protein deacylase sirtuin-5, mitochondrial (Q9NXA8 whole entry): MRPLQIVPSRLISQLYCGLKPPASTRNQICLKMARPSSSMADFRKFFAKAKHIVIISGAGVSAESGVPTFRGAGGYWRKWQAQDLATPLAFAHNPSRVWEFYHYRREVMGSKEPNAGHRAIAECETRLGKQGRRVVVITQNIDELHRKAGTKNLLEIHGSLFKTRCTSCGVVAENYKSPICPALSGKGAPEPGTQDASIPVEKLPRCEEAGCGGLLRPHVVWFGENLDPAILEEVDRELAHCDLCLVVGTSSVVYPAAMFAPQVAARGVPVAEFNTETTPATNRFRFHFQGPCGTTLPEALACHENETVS

[9] = tested on: Streptococcus; experiment: GAS UMAA2166 growth inhibition – luminescence, BacTiterGlo, counter-screen for streptokinase expression inhibitor project, dose response (AID 1915); type: functional, organism-based;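 also: potency for reduction of bacterial viability or growth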
[10] = off-target signal loss in HeLa-CEM21 co-culture – HeLa F-luc CTL cells, cherry-picked, counter-screen for HIV-1 Env fusion inhibitor project, dose response (AID 652040); type: functional, cell-based;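 also: potency for signal decrease marking cytotoxic or nonspecific inhibition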
[11] = target: T2, Streptokinase A (Streptococcus pyogenes serotype M1, UniProt P10520); experiment: viability-normalized secreted streptokinase activity reduction – plasminogen activation absorbance, OD405, dose response (AID 1914); type: functional, Streptococcus pyogenes M1 GAS;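 also: secreted streptokinase activity via plasminogen activation per viability signal from cell pellet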
T2 sequence (P10520 whole entry): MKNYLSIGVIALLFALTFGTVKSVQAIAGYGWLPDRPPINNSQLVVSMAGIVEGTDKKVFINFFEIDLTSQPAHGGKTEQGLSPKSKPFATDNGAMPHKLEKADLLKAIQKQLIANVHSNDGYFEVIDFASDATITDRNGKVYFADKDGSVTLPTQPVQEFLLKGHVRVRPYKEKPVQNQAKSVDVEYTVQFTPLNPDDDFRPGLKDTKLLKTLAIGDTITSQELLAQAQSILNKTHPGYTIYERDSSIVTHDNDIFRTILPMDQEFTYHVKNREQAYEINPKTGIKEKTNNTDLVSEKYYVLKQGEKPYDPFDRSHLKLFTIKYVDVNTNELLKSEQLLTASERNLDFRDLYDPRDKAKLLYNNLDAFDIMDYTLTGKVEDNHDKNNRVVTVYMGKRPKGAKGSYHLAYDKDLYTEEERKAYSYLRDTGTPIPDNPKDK

[12] = tested on: Streptococcus sp. 'group A'; experiment: Streptococcus pyogenes SK(-)GAS viability under kanamycin – luminescence, BacTiterGlo, confirmation, counter-screen for streptokinase expression inhibitor project, dose response (AID 1900); type: functional, organism-based
[13] = target: T3, Long-chain-fatty-acid--AMP ligase FadD28 (Mycobacterium tuberculosis, UniProt P9WQ59); experiment: Fluorescence polarization aasay to screen for inhibitors that compete for the binding of FadD28 to a bisubstrate Measured in Biochemical System Using Plate Reader - 2147-01_Inhibitor_Dose_CherryPick_Activity.; type: functional, Mycobacterium tuberculosis H37Rv
T3 sequence (P9WQ59 whole entry): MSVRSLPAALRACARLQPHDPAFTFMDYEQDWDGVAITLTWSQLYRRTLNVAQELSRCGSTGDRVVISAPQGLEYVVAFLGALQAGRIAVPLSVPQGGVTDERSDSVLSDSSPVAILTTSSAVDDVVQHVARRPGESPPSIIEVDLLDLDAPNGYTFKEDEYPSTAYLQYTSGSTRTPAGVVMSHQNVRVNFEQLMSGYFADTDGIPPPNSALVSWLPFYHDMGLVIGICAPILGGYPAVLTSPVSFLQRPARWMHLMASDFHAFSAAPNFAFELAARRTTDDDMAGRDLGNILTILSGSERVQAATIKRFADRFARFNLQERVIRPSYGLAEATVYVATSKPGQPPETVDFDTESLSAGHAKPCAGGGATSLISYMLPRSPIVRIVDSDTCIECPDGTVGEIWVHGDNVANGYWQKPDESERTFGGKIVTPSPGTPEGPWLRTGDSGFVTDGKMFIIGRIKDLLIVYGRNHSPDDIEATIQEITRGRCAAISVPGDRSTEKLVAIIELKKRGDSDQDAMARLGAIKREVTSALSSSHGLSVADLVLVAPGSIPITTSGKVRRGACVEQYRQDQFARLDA

[14] = target: T4, Heat shock factor protein 1 (Mus musculus, UniProt P38532); experiment: decrease of HSF1-responsive luciferase luminescence – cell-based, NIH3T3, dose retest, confirmation (AID 2382); type: functional;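 also: NIH3T3 fibroblasts with HSF1-driven luciferase reporter stressed by proteasome inhibitor MG132; luminescence from HSF1-driven luciferase expression after 8 hours of MG132 stress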
T4 sequence (P38532 whole entry): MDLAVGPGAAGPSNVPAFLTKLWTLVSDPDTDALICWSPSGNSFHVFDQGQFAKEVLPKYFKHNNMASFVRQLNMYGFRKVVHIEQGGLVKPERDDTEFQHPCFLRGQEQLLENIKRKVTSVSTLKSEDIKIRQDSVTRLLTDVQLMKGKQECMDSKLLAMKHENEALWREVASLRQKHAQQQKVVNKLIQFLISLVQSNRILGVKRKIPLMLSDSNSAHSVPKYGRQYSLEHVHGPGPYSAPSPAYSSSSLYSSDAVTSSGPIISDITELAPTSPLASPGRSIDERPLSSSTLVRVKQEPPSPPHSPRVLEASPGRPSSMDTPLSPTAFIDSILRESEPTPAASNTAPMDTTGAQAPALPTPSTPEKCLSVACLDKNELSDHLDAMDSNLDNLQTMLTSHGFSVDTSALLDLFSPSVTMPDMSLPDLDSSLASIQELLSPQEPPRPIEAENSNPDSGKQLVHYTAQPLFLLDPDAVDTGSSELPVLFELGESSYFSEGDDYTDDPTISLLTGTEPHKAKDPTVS

[15] = loss of viability in HepG2 cells – cell-based, CellTiter-Glo, cherry-picked, cytotoxicity control for Shn3 inhibitor project, dose response (AID 624134); type: functional
[16] = tested on: P388; experiment: cells; type: functional; conditions: Mus musculus
[17] = target: Paired box protein Pax-8 (Homo sapiens, UniProt Q06710); experiment: PAX8 transcriptional activity inhibition in RMG-I – RMG-I cells, luciferase, cherry-pick, dose response (AID 687027); type: functional, cell-based;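 also: luciferase reporter driven by Pax8 target thyroperoxidase promoter measured by SteadyGlo luminescence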
Chain of Paired box protein Pax-8 (Q06710 whole entry): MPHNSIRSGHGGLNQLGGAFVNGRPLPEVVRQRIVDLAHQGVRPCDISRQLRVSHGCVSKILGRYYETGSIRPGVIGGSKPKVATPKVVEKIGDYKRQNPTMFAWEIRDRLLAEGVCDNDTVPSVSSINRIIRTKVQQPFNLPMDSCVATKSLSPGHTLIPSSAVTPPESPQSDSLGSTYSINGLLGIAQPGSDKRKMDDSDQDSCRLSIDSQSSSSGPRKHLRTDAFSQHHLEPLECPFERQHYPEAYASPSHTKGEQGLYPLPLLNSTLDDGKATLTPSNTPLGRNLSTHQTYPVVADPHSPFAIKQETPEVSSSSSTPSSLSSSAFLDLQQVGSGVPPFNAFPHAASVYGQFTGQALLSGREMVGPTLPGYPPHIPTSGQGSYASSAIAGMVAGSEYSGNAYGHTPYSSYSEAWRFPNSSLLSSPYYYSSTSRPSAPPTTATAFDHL

[18] = non-specific 3'UTR reporter inhibition in Clone20-Shn3RL – cell-based, Renilla luciferase, cherry-picked, counter-screen for Shn3 inhibitor project, dose response (AID 624133); type: functional
[19] = tested on: P388/ADR; experiment: cells; type: functional; conditions: Mus musculus
[20] = tested on: SN12K1; experiment: cells; type: functional; conditions: Homo sapiens
[21] = reduction of Shn3 3'UTR-driven luciferase in osteoblasts – cell-based, Clone20 osteoblasts, firefly luciferase, cherry-picked, dose response (AID 624132); type: functional;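 also: firefly luciferase luminescence from reporter carrying the Shn3 3'UTR in osteoblasts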
[22] = blockers of HIV-1 ZM109 envelope-driven cell-cell fusion – HeLa effector, CEM target cells, luciferase, cherry-pick, dose response (AID 652058); type: functional, cell-based;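 also: luciferase signal from HIV-1 Env mediated cell-cell fusion of effector and target cells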
[23] = microbe, parasite or virus in culture; type: functional; conditions: Mycobacterium tuberculosis
[24] = target: T5, High affinity choline transporter 1 (Homo sapiens, UniProt Q9GZV3); experiment: human choline transporter blockers, potency – cell-based, 5-point CRC, membrane potential dye, dose response (AID 504840); type: functional
T5 sequence (Q9GZV3 whole entry): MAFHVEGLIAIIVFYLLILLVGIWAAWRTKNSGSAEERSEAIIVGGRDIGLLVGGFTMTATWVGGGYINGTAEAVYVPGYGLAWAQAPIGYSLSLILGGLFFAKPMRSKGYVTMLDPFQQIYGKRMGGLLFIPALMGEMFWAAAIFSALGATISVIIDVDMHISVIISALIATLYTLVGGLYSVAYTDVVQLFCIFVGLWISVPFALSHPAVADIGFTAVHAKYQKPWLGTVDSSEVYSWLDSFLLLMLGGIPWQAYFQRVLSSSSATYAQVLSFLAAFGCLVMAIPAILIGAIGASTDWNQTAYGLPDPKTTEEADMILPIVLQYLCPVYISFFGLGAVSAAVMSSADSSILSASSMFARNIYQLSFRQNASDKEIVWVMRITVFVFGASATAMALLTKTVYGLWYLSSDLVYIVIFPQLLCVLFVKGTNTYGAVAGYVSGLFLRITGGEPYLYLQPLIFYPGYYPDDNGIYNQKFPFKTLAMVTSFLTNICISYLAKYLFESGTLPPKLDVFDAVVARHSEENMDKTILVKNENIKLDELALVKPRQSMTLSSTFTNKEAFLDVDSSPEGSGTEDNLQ

## Fc1ccc2cc(-c3ccccc3)ncc2c1
[1]
  IC50: > 100 µM (inactive)

## C[C@@H]1CN([C@H](C)CO)S(=O)(=O)c2ccc(C#Cc3ccccc3)cc2O[C@H]1CN(C)C(=O)C1CC1
[2]
  AC50: 11.1 µM (active)
[3]
  AC50: 44.3 µM (active)
[4]
  AC50: 7.33 µM (active)
[5]
  AC50: 2.66 µM (active)

## O=C(Nc1ccc(CN2CCOCC2)cc1)c1cc2ccccc2o1
[1]
  IC50: 15.4 µM (active)

## OC(COCc1ccc(Cl)cc1)CN1CCN(c2ccccn2)CC1 (stereo not drawn)
[6]
  EC50: 0.819 µM (active)
[7]
  EC50: 92.5 µM (inactive)

## COc1cccc(NC(=O)CN(C)CC(=O)Nc2ccc3c(c2)CCC3)c1
[8]
  AC50: > 30 µM (inactive)

## O=C(Cn1c(=O)oc2ccccc21)Nc1cccc(Cl)c1
[8]
  AC50: > 30 µM (inactive)

## Cc1ccc(C2Oc3ccccc3C3=C2C(c2cccs2)n2ncnc2N3)cc1 (stereo not drawn)
[9]
  EC50: 7.1 µM (active)
[10]
  AC50: 14.1 µM (active)
[11]
  EC50: > 150 µM (not active)
[3]
  AC50: 31.7 µM (active)
[12]
  EC50: 2.7 µM (active)
[5]
  AC50: 9.29 µM (active)

## O=C(c1ccco1)N1CCN(Cc2ccc(Cl)cc2)CC1
[6]
  EC50: 4.08 µM (active)
[7]
  EC50: 92.5 µM (inactive)

## COc1ccc(NC(=O)N[C@@H](CCSC)C(=O)O)cc1OC
[8]
  AC50: > 30 µM (inactive)

## CN(CC(=O)Nc1cccc(Cl)c1)S(=O)(=O)c1ccc2c(c1)n(C)c(=O)c(=O)n2C
[8]
  AC50: > 30 µM (inactive)

## Cc1cccc(NC(=O)CN2C(=O)N/C(=C/c3cc(C)n(C(C)C)c3C)C2=O)c1
[13]
  AC50: 7.01 µM (active)
[14]
  EC50: > 195 µM (not active)

## Brc1cccc(CN2CCN(c3ncccn3)CC2)c1
[6]
  EC50: 0.352 µM (active)
[7]
  EC50: 92.5 µM (inactive)

## O=C1NC2C(=CC(O)C(O)C2O)c2cc3c(cc21)OCO3 (stereo not drawn)
[15]
  AC50: 53.9 µM (active)
[16]
  GI50: 0.115 µM (active)
[1]
  IC50: 64.3 µM (inactive)
[17]
  AC50: 0.325 µM (active)
[10]
  AC50: 3.78 µM (active)
[18]
  AC50: 3.82 µM (active)
[3]
  AC50: 0.738 µM (active)
[19]
  GI50: 0.0984 µM (active)
[20]
  GI50: 0.234 µM (active)
[21]
  AC50: 2.22 µM (active)
[5]
  AC50: 2.38 µM (active)

## O=C(CN1CCN(c2ccccn2)CC1)Nc1cccc(S(=O)(=O)N2CCCC2)c1
[6]
  EC50: 9.85 µM (active)
[7]
  EC50: 92.5 µM (inactive)

## Cc1[nH]c2ccc(OC(F)(F)F)cc2c1CCNCc1ccc(Cl)cc1
[10]
  AC50: 1.71 µM (active)
[22]
  AC50: 1.24 µM (active)
[23]
  CC50: 12.6 µM (active)
[2]
  AC50: 5.12 µM (active)
[3]
  AC50: 9.56 µM (active)
[5]
  AC50: 0.838 µM (active)

## CCn1cc(CN2CCC(C(=O)Nc3ccc(Oc4cccnc4)cc3)CC2)cn1
[9]
  EC50: > 150 µM (not active)
[13]
  AC50: 37.3 µM (active)
[11]
  EC50: > 150 µM (not active)
[12]
  EC50: > 150 µM (not active)

## Cc1nn(-c2ccccc2)c2nc(O)cc(C(F)(F)F)c12
[8]
  AC50: > 30 µM (inactive)
[24]
  IC50: 7.1 µM (active)

## Cc1ccc(C2CC(=O)N3CN(Cc4ccco4)CSC3=C2C#N)cc1 (stereo not drawn)
[13]
  AC50: 82.5 µM (active)

## COc1cccc(C(=O)NNC(=O)CCN2CCN(c3ccccc3)CC2)c1
[6]
  EC50: 0.427 µM (active)
[7]
  EC50: 92.4 µM (inactive)

## CC(C)OC(=O)CSc1nnc(SCc2cccc3ccccc23)s1
[1]
  IC50: > 100 µM (inactive)

Reference: ChEMBL document CHEMBL1201862, “PubChem BioAssay data set” (2004)
